For one compound, RANTES production results are on record in patent publication US11419913B2, “Pharmaceutical compositions for inhibiting inflammatory cytokines” (S.I.S. SHULOV INNOVATIVE SCIENCE LTD., priority 2018, dated 2022).

SMILES strings stand for the structures. Where a SMILES comes first, the peptide text is derived from it. [ ]: non-standard residue; d: D form. The star is where a group is joined. pGlu = O=C1CC[C@@H](C(=O)O)N1; Octanoyl = CCCCCCCC(=O)*

The experiment concerns RANTES. Briefly: RANTES production in LPS-stimulated human PBMCs. It counts as cell-based. Particulars: ZEP3 40, 100 and 150 μg/ml, 1 hr pre-treatment, LPS 24 hours; 4 donors (FIG. 12). As to the method: The effect of the peptide ZEP3 (SEQ ID NO: 1) on cytokine production was evaluated in an in vitro human model of inflammation. Human Peripheral Blood Mononuclear Cells (PBMCs) were stimulated using Lipopolysaccharide (LPS) to produce cytokines.
Method: Briefly, cryopreserved human PBMCs of four healthy non-smokers, not on any corticosteroids or other inflammatory drugs, were grown in RPMI 1640 with 10% heat inactivated fetal bovine serum (FBS), 100 U/ml penicillin and 100 μg/mL streptomycin (complete growth medium, CGM).
Human PBMCs were thawed and plated for all groups (1-6, Table 7), and rested for 1 hour before treatment. […] 24 hours post LPS addition, Almar Blue fluorescent at 585 nm (correlating with cell viability), is measured and supernatant is collected for cytokine determination. […]
Detailed method: cells were thawed according to manufacturer's instructions, washed in CGM and assessed for viability using trypan blue staining. […] At 24 hours post LPS stimulation, plates were read for assessment of cell viability and cell culture supernatants were harvested and stored at −80° C. for cytokine analysis. […] Cytokine production and percentage of sample stimulation vs. the average of the stimulation control were calculated.

In the case of `CCCCCCCC(=O)NCCCC[C@H](NC(=O)[C@H](Cc1c[nH]c2ccccc12)NC(=O)[C@H](CC(N)=O)NC(=O)[C@@H]1CCC(=O)N1)C(=O)O` [ZEP3, pGlu-Asn-Trp-Lys(Octanoyl)-OH] ([pGlu]NWK(Octanoyl)-OH), the RANTES production result is given as “significant reduction”.
